In patent US9744122B2, “Topical formulation for pain relief” (priority 2013, dated 2017):

What was measured:
[1] = testing of topical pain relief; format: in vivo
Description: A new route of administration for mannitol for the specific indication of pain is disclosed. The topical composition allows for transdermal delivery of mannitol. […] The ingredients, including mannitol, are typically classified as natural health products.
(§1) Therefore, an improved topical composition includes from 0.25% up to 20.0% of menthol, by weight.

TRPV1 receptor = TRPV1 receptor (Homo sapiens, UniProt Q8NER1); assay: inventors' own studies on mechanism of topical pain relief; conditions: distinct from osmotic effects
Description: The TRPV1 receptor is present on sensory nerves in the skin and is implicated in neurogenic inflammation, acute pain and chronic pain.

[2] = absorption of mannitol through skin; conditions: when menthol is included in the composition
Description: as §1

Sequence of TRPV1 receptor (Q8NER1 whole entry): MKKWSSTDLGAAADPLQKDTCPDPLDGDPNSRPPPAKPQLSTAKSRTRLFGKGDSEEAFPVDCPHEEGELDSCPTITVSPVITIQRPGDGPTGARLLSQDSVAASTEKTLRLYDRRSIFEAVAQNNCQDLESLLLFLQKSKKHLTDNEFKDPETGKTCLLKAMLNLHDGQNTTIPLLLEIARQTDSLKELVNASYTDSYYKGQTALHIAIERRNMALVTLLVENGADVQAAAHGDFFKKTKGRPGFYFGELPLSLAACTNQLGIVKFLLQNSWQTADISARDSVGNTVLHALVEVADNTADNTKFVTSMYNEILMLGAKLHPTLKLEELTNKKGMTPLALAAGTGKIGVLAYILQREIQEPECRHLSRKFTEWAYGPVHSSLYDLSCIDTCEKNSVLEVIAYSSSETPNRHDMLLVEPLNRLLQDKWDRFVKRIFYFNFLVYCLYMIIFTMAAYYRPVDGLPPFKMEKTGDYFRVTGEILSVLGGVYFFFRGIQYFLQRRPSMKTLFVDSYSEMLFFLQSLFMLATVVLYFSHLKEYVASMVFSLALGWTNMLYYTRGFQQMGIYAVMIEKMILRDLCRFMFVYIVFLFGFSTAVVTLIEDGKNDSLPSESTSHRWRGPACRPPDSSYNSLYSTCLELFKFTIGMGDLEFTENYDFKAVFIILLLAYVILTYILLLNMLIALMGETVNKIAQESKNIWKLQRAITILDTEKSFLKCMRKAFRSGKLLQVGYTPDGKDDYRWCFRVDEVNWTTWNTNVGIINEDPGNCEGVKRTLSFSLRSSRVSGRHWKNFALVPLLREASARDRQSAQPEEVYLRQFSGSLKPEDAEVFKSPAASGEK

Row | effect on TRPV1 receptor (TRPV1 receptor) | absorption through skin [2] | Structure (SMILES) | pain relief ([1]; when menthol is included in the composition) | effectiveness of menthol content in the topical composition ([1]; 1.25% menthol by weight)
1 | down-regulation | much more effectively absorbed | OC[C@@H](O)[C@@H](O)[C@H](O)[C@H](O)CO [mannitol] | improved pain relief | –
2 | – | – | CC1CCC(C(C)C)C(O)C1 (stereo not shown) [menthol] | – | effective
